Measurements: the supplement of paper PMC10307832

Experiments:
Assay in all cases: relative viability (nuclei count vs DMSO), 5 days (fraction); higher = more cells survive
Adavosertib + Luminespib = compound: C=CCn1c(=O)c2cnc(Nc3ccc(N4CCN(C)CC4)cc3)nc2n1-c1cccc(C(C)(C)O)n1 [Adavosertib] + CCNC(=O)c1noc(-c2cc(C(C)C)c(O)cc2O)c1-c1ccc(CN2CCOCC2)cc1 [Luminespib] (partner 0.01 µM)
Procedure, shortened: (§1)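 For relative viability, nuclei counts in treated wells were divided by those in vehicle wells. Lung cancer cell lines had been pin-tool dosed in 1536-well plates the day after seeding and cultured for 5 days, then fixed and stained in one step (final 0.05% Triton X-100, 1% formaldehyde, 1 ug/ml Hoechst) and imaged at 4×. Doses were one drug alone or a fixed anchor-drug dose plus five library-drug doses (not always all listed) in √10 steps, and values are duplicate-plate medians.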

Adavosertib + Crizotinib = compound: C=CCn1c(=O)c2cnc(Nc3ccc(N4CCN(C)CC4)cc3)nc2n1-c1cccc(C(C)(C)O)n1 [Adavosertib] + C[C@@H](Oc1cc(-c2cnn(C3CCNCC3)c2)cnc1N)c1c(Cl)ccc(F)c1Cl [Crizotinib] (partner 1 µM)
Procedure, shortened: as §1

Adavosertib + Pemetrexed = compound: C=CCn1c(=O)c2cnc(Nc3ccc(N4CCN(C)CC4)cc3)nc2n1-c1cccc(C(C)(C)O)n1 [Adavosertib] + Nc1nc2[nH]cc(CCc3ccc(C(=O)N[C@@H](CCC(=O)O)C(=O)O)cc3)c2c(=O)[nH]1 [Pemetrexed] (partner 0.2 µM)
Procedure, shortened: as §1

Nelarabine + OSI-027 = compound: COc1nc(N)nc2c1ncn2[C@@H]1O[C@H](CO)[C@@H](O)[C@@H]1O [Nelarabine] + COc1cccc2cc(-c3nc([C@H]4CC[C@H](C(=O)O)CC4)n4ncnc(N)c34)[nH]c12 [OSI-027] (partner 0.5 µM)
Procedure, shortened: as §1

Cell Line	relative viability (Adavosertib + Luminespib; first compound 0.01 µM)	relative viability (Adavosertib + Luminespib; first compound 0.03162 µM)	relative viability (Adavosertib + Luminespib; first compound 0.1 µM)	relative viability (Adavosertib + Luminespib; first compound 0.3162 µM)	relative viability (Adavosertib + Crizotinib; first compound 0.01 µM)	relative viability (Adavosertib + Crizotinib; first compound 0.03162 µM)	relative viability (Adavosertib + Crizotinib; first compound 0.1 µM)	relative viability (Adavosertib + Crizotinib; first compound 0.3162 µM)	relative viability (Adavosertib + Pemetrexed; first compound 0.01 µM)	relative viability (Adavosertib + Pemetrexed; first compound 0.03162 µM)	relative viability (Adavosertib + Pemetrexed; first compound 0.1 µM)	relative viability (Adavosertib + Pemetrexed; first compound 0.3162 µM)	relative viability (Nelarabine + OSI-027; first compound 0.01 µM)	relative viability (Nelarabine + OSI-027; first compound 0.03162 µM)	relative viability (Nelarabine + OSI-027; first compound 0.1 µM)	relative viability (Nelarabine + OSI-027; first compound 0.3162 µM)	relative viability (Nelarabine + OSI-027; first compound 1 µM)
NCI-H596	0.911	1.2	0.958	0.76	1.04	1.07	1.11	1.03	0.497	0.515	0.471	0.423	0.82	0.668	0.698	0.692	0.792
NCI-H647	0.128	0.179	0.151	0.136	1.2	1.08	0.967	0.593	0.155	0.159	0.141	0.123	0.481	0.683	0.68	0.68	0.571
NCI-H650	0.76	0.842	0.841	0.673	0.706	0.648	0.692	0.609	0.892	1.07	0.952	0.774	0.616	0.529	0.48	0.563	0.501
NCI-H661	0.898	0.924	1.06	0.557	1.08	1.1	1.13	1.04	0.915	0.834	0.74	0.415	0.53	0.652	0.738	0.775	0.651
NCI-H838	0.293	0.302	0.313	0.284	0.872	0.847	0.82	0.77	0.263	0.22	0.172	0.168	0.463	0.377	0.324	0.426	0.45
NCI-H1355	0.671	0.644	0.617	0.631	1.04	0.985	1.04	0.908	0.984	1.03	0.965	0.808	0.481	0.434	0.367	0.363	0.382
NCI-H1437	1.07	1.2	1.17	1.07	1	0.973	1.04	0.922	0.328	0.281	0.309	0.229	1.04	0.859	0.845	0.948	0.796
NCI-H1563	0.562	0.544	0.507	0.473	0.837	0.942	0.936	0.924	0.677	0.903	0.713	0.808	0.847	0.722	0.785	0.739	0.863
NCI-H1650	0.2	0.207	0.213	0.145	0.931	1.02	1.04	1.17	0.387	0.366	0.281	0.278	0.713	0.619	0.458	0.767	0.61
NCI-H1651	0.812	1.06	0.733	0.678	0.836	0.882	0.897	0.899	0.564	0.574	0.628	0.408	0.761	0.677	0.727	0.874	0.631
NCI-H1666	0.977	0.946	0.994	1.02	0.926	0.963	1.01	1.05	0.808	0.925	0.82	0.695	0.874	0.955	0.89	0.915	0.908
NCI-H1734	0.234	0.241	0.184	0.191	0.817	0.772	0.82	0.695	0.409	0.39	0.325	0.323	0.759	0.609	0.547	0.582	0.619
NCI-H1755	0.417	0.616	0.342	0.531	0.885	0.882	0.911	0.739	0.419	0.43	0.43	0.392	0.647	0.642	0.699	0.835	0.781
NCI-H1792	0.595	0.446	0.456	0.569	0.978	0.881	1.05	1.05	0.858	0.756	0.718	0.71	–	0.773	0.75	0.904	1.13
NCI-H1915	0.912	0.729	0.752	0.617	0.941	0.812	0.981	1	0.528	0.464	0.346	0.259	0.675	0.666	0.678	0.706	0.684
NCI-H1944	0.696	0.715	0.655	0.575	1.14	1.11	1.17	1.13	0.621	0.582	0.428	0.27	0.468	0.436	0.442	0.426	0.455
NCI-H1975	0.16	0.17	0.188	0.176	0.962	0.952	0.904	0.625	0.263	0.268	0.209	0.213	0.791	0.55	0.87	0.834	0.876
NCI-H1993	0.912	0.904	0.836	1.06	0.919	0.804	0.874	0.95	0.57	0.517	0.608	0.629	0.596	0.502	0.551	0.567	0.585

Cell Line	relative viability (Adavosertib + Luminespib; first compound 0.01 µM)	relative viability (Adavosertib + Luminespib; first compound 0.03162 µM)	relative viability (Adavosertib + Luminespib; first compound 0.1 µM)	relative viability (Adavosertib + Luminespib; first compound 0.3162 µM)	relative viability (Adavosertib + Crizotinib; first compound 0.01 µM)	relative viability (Adavosertib + Crizotinib; first compound 0.03162 µM)	relative viability (Adavosertib + Crizotinib; first compound 0.1 µM)	relative viability (Adavosertib + Crizotinib; first compound 0.3162 µM)	relative viability (Adavosertib + Pemetrexed; first compound 0.01 µM)	relative viability (Adavosertib + Pemetrexed; first compound 0.03162 µM)	relative viability (Adavosertib + Pemetrexed; first compound 0.1 µM)	relative viability (Adavosertib + Pemetrexed; first compound 0.3162 µM)	relative viability (Nelarabine + OSI-027; first compound 0.01 µM)	relative viability (Nelarabine + OSI-027; first compound 0.03162 µM)	relative viability (Nelarabine + OSI-027; first compound 0.1 µM)	relative viability (Nelarabine + OSI-027; first compound 0.3162 µM)	relative viability (Nelarabine + OSI-027; first compound 1 µM)
NCI-H2009	1.01	1.07	1.06	0.888	0.995	1.05	1.03	1.04	1.03	0.987	1.04	0.775	0.767	0.643	0.546	0.696	0.71
NCI-H2023	0.8	0.771	0.441	0.31	0.717	0.681	0.573	0.551	0.114	0.163	0.164	0.114	0.545	0.397	0.341	0.416	0.354
NCI-H2085	0.61	0.411	0.46	0.35	0.748	0.866	0.946	0.85	0.881	0.86	0.901	0.998	0.945	0.849	0.664	0.797	0.748
NCI-H2087	0.208	0.187	0.194	0.195	0.911	0.96	1.03	0.896	0.644	0.634	0.67	0.644	0.568	0.639	0.489	0.676	0.517
NCI-H2126	0.831	0.832	0.897	0.93	1.05	1.01	1.08	1.07	0.615	0.66	0.695	0.643	0.761	0.724	0.641	0.771	0.66
NCI-H2170	0.592	0.747	0.626	0.479	1.23	1.17	1.19	1.35	0.282	0.248	0.271	0.218	0.716	0.67	0.704	0.656	0.753
NCI-H2228	0.186	0.159	0.132	0.134	0.391	0.458	0.615	0.3	–	0.331	0.361	0.2	0.949	0.635	–	0.784	0.563
NCI-H2347	0.467	0.382	0.723	0.292	0.72	0.778	0.772	0.699	0.463	0.422	0.437	0.439	0.505	0.431	0.409	0.389	0.369
NCI-H2405	0.556	0.805	0.773	0.69	0.804	0.875	0.872	0.879	–	1.1	0.899	1.05	0.722	0.66	0.471	0.632	0.624
NCI-H3122	0.0987	0.0823	0.12	0.0969	0.287	0.241	0.294	0.271	0.211	0.199	0.188	0.173	1.34	1.01	–	1.11	1.03
PC-3 [JPC-3]	0.665	0.746	0.657	0.724	0.996	0.905	1.06	1	–	1.24	1.26	1.12	0.854	0.604	0.73	0.744	0.685
PC-14	0.151	0.165	0.219	0.141	0.91	1.02	1.02	0.646	0.151	0.121	0.115	0.0767	1.41	0.97	0.936	1.22	1.05
RERF-LC-KJ	1.32	1.33	1.29	1.16	0.795	0.815	0.94	0.925	0.384	0.463	0.481	0.471	0.654	0.524	0.505	0.59	0.627
SK-LU-1	0.19	0.201	0.249	0.169	0.837	0.844	0.553	0.325	1.03	0.967	0.812	0.536	0.287	0.267	0.364	0.396	0.327
SK-MES-1	0.604	0.723	0.559	0.236	0.92	1.02	0.983	0.791	0.958	0.916	0.754	0.338	0.698	0.579	0.62	0.683	0.611
SW 1573	0.177	0.226	0.192	0.198	0.797	0.879	1.09	0.845	0.871	0.747	0.912	0.557	1.19	0.836	0.548	0.701	0.619
UMC-11	1.02	0.936	1.15	1	0.63	0.588	0.739	0.623	0.791	0.725	0.763	0.594	0.655	0.569	0.586	0.476	0.503
